This note sets out measurements from ChEMBL document CHEMBL1201862, “PubChem BioAssay data set” (2004).

Some test systems named below: LOX IMVI; SNB-75; OVCAR-3; ACHN; EKVX; 786-0; SK-OV-3; BT-549; HCT-116; SK-MEL-2; COLO 205; OVCAR-4; CAKI-1; UACC-257; SR; NCI-H23; SN12C; UO-31; Malme-3M; T47D.
Test in all cases: growth of human tumour cells (NCI), 48 h

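Exposure lasted 48 hours, with cells grown in 96-well plates and compounds tested at five concentrations. GI50 is the concentration that inhibits growth by half.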 The source made the active and inactive calls. Rule as the data show it: active = GI50 up to about 1.1 µM and inactive = higher.

As for `NNC1=NC(=O)NC(=O)C1`, the GI50 in the assay on LOX IMVI, in the assay on SNB-75, in the assay with OVCAR-3, in the assay on ACHN, with EKVX and in the assay on 786-0 was > 100 µM (inactive) in each case. The GI50 with SK-OV-3, in the assay with BT-549, with HCT-116, in the assay on SK-MEL-2, in the assay with COLO 205 and in the assay on OVCAR-4 was > 100 µM (inactive) each time. The GI50 with CAKI-1, in the assay with UACC-257, in the assay on SR, in the assay on NCI-H23, in the assay with SN12C and in the assay on UO-31 was > 100 µM (inactive) each time. Besides, the GI50 in the assay on Malme-3M and in the assay with T47D was > 100 µM (inactive) in each case.

Regarding `COC1CCON1C(=O)c1ccccc1` (stereo not given), the GI50 with LOX IMVI, with SNB-75, in the assay with OVCAR-3, with ACHN, in the assay with EKVX and with 786-0 was > 10 µM (inactive) each time. Besides, the GI50 with SK-OV-3, in the assay on BT-549, with HCT-116, in the assay on SK-MEL-2, in the assay on COLO 205 and in the assay with OVCAR-4 was > 10 µM (inactive) in each case. In addition, the GI50 in the assay on CAKI-1, in the assay on UACC-257, with SR, with NCI-H23, in the assay with SN12C and in the assay on UO-31 was > 10 µM (inactive) throughout. Besides, the GI50 with Malme-3M and in the assay with T47D was > 10 µM (inactive) each time.

For `NC(=O)NC(=O)c1cccc(NC(=O)CCl)c1`, the GI50 is 0.465 µM (active) in the assay with LOX IMVI; 1.98 µM (inactive) in the assay with SNB-75; 0.223 µM (active) with OVCAR-3; 2.56 µM (inactive) in the assay on ACHN; 7.01 µM (inactive) in the assay with EKVX; 1.06 µM (active) in the assay on 786-0. Moreover, the GI50 in the assay on SK-OV-3 was 1.45 µM (inactive); in the assay with BT-549, 1.41 µM (inactive); with HCT-116, 0.392 µM (active); in the assay on SK-MEL-2, 2.38 µM (inactive); in the assay on COLO 205, 0.394 µM (active); in the assay with OVCAR-4, 2.19 µM (inactive). The GI50 in the assay with CAKI-1 was 1.39 µM (inactive); in the assay with UACC-257, 1.19 µM (inactive); in the assay on SR, 0.124 µM (active); in the assay on NCI-H23 it was 0.953 µM (active); with SN12C it was 1.43 µM (inactive); with UO-31, 0.168 µM (active). Also, the GI50 with Malme-3M is 5.22 µM (inactive); in the assay on T47D, 2.18 µM (inactive).

In the case of `COc1cc(C2SCC(=O)N2c2ccc(-c3ccc(-n4c(-c5ccccc5)nc5ccccc5c4=O)cc3)cc2)ccc1O` (stereo not given), the GI50 was 27.2 µM (inactive) in the assay on LOX IMVI; 15 µM (inactive) in the assay on SNB-75; 61.5 µM (inactive) in the assay with OVCAR-3; > 100 µM (inactive) with ACHN; > 100 µM (inactive) in the assay on EKVX; 29.6 µM (inactive) in the assay on 786-0. Besides, the GI50 is 16 µM (inactive) in the assay on SK-OV-3; > 100 µM (inactive) in the assay with BT-549; 47.8 µM (inactive) in the assay with HCT-116; > 100 µM (inactive) in the assay with SK-MEL-2; > 100 µM (inactive) with COLO 205; 37.9 µM (inactive) in the assay on OVCAR-4. Moreover, the GI50 in the assay with CAKI-1 is > 100 µM (inactive); with UACC-257, > 100 µM (inactive); in the assay with SR it was > 10 µM (inactive); in the assay on NCI-H23 it was > 100 µM (inactive); in the assay on SN12C it was > 100 µM (inactive); in the assay with UO-31 it was 24.4 µM (inactive). Moreover, the GI50 is > 100 µM (inactive) in the assay with Malme-3M and 14.4 µM (inactive) with T47D.

As to `CC1OC(OC2C[C@](O)(C(=O)CBr)Cc3c(O)c4c(c(O)c32)C(=O)c2ccccc2C4=O)C(F)C(O)C1O` (stereo not given in full), the GI50 with LOX IMVI was 10 µM (inactive); with SNB-75, 8.83 µM (inactive); in the assay on OVCAR-3 it was 13.9 µM (inactive); with ACHN it was 1.53 µM (inactive); in the assay with EKVX, 46.6 µM (inactive); in the assay with 786-0, 3.66 µM (inactive). Besides, the GI50 was 33.6 µM (inactive) in the assay on SK-OV-3; 24.7 µM (inactive) with BT-549; 5.83 µM (inactive) in the assay on HCT-116; 29.6 µM (inactive) with SK-MEL-2; 9.73 µM (inactive) in the assay with COLO 205; 23.6 µM (inactive) with OVCAR-4. Moreover, the GI50 is 2.71 µM (inactive) in the assay on CAKI-1; 13.3 µM (inactive) with UACC-257; 0.426 µM (active) in the assay with SR; 5.58 µM (inactive) with NCI-H23; 6.92 µM (inactive) in the assay on SN12C; 1.22 µM (inactive) in the assay on UO-31. The results for the GI50 in the assay with Malme-3M and with T47D were 3.66 µM (inactive) and 5.35 µM (inactive), respectively.
